This passage reports TGI and GI50 results from PubChem BioAssay (NCI).

Broadly, the TGI is the concentration giving total growth inhibition. For orientation: GI50 means the concentration at which growth is held to half of that of the control.

Test systems include CAKI-1 renal; SK-MEL-28 melanoma; OVCAR-5 ovarian; NCI/ADR-RES ovarian; CCRF-CEM leukemia; SK-MEL-2 melanoma; HCT-116 colon; UO-31 renal; DU-145 prostate; RXF 393 renal.
What all share (test): DTP human tumour cell line panel, 48 h

Where “and” joins values, the source holds several entries; their conditions need not be identical. Identical values can stand only once.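 96-well plates; 48 h exposure; 5 concentrations. Endpoints by linear interpolation between flanking doses. Not reached: highest tested concentration assigned. GI50 = concentration required for 50% inhibition of growth. At the TGI there is no net growth.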

With `N#CCOc1cccc(C2(N3CC=CCC3)CCCCC2)c1`, the TGI with CAKI-1 renal, in the test on SK-MEL-28 melanoma, in the test with OVCAR-5 ovarian, in the test on NCI/ADR-RES ovarian, in the test on CCRF-CEM leukemia and in the test on SK-MEL-2 melanoma was > 100 µM each time. In addition, the TGI in the test on HCT-116 colon, in the test with UO-31 renal and in the test on DU-145 prostate was > 100 µM in each case.

On to `Nc1nn(CC(O)CO)c(=O)s1` (stereo unspecified), for which the concentration for total growth inhibition (TGI) with SK-MEL-28 melanoma is 9.86 µM; with OVCAR-5 ovarian, > 100 µM; in the test on CCRF-CEM leukemia, > 100 µM; in the test with RXF 393 renal, > 100 µM; in the test on SK-MEL-2 melanoma, > 100 µM; in the test on HCT-116 colon, > 100 µM. Also, the concentration for total growth inhibition (TGI) in the test on UO-31 renal was > 100 µM.

As to `CC1(C)OCC(COC(=O)NCn2cc(-c3ccccc3)nn2)O1` (stereo unspecified), the TGI in the test on CAKI-1 renal, in the test on SK-MEL-28 melanoma, with OVCAR-5 ovarian, in the test with NCI/ADR-RES ovarian, in the test on CCRF-CEM leukemia and in the test on SK-MEL-2 melanoma was > 100 µM throughout. Moreover, the TGI in the test with HCT-116 colon and in the test on DU-145 prostate was > 100 µM in each case.

`C=CC[N+](CCO)(CCO)CCCCCCCCCCCCCCCCCC`: the concentration for total growth inhibition (TGI) is 17.9 µM with CAKI-1 renal; 28 µM in the test with SK-MEL-28 melanoma; 31.5 µM in the test on OVCAR-5 ovarian; 55.8 µM with NCI/ADR-RES ovarian; 3.76 µM in the test with CCRF-CEM leukemia; 5.24 µM in the test with RXF 393 renal. For the same compound, the figures for the TGI with SK-MEL-2 melanoma, in the test with HCT-116 colon and in the test with UO-31 renal were 32.7 µM, 14.7 µM and 31.4 µM, respectively.

For the compound `N#Cc1ccc(Nc2cnc3ccc(N)cc3n2)cc1`, the total growth inhibition concentration (TGI) in the test on CAKI-1 renal, in the test on SK-MEL-28 melanoma, in the test with OVCAR-5 ovarian, in the test on CCRF-CEM leukemia, with RXF 393 renal and with SK-MEL-2 melanoma was > 100 µM throughout. The total growth inhibition concentration (TGI) with HCT-116 colon and with UO-31 renal was > 100 µM in each case.

Consider `COc1c(-c2cccs2)oc2c(CC(=O)O)cccc2c1=O`, for which the TGI in the test on CAKI-1 renal, in the test on OVCAR-5 ovarian, in the test on CCRF-CEM leukemia, in the test on RXF 393 renal, in the test with SK-MEL-2 melanoma and in the test with HCT-116 colon was > 100 µM in each case. The total growth inhibition concentration (TGI) in the test on UO-31 renal is 48.9 µM; in the test on DU-145 prostate, > 100 µM.

For `C[C@H](N)C(=O)N[C@@H]1[C@H]2C(=C(O)C[C@@H](O)[C@@H]2O)C(=O)O[C@@H]1C`, the TGI with CAKI-1 renal, in the test on SK-MEL-28 melanoma, in the test with OVCAR-5 ovarian, in the test on NCI/ADR-RES ovarian, with CCRF-CEM leukemia and with RXF 393 renal was > 100 µM in each case. For the same compound, the total growth inhibition concentration (TGI) in the test with SK-MEL-2 melanoma, in the test with HCT-116 colon and in the test on UO-31 renal was > 100 µM throughout.

For `COc1ccc2c(c1)CC1(O)COc3cc(OC)ccc3C1O2` (stereo unspecified), the TGI in the test on CAKI-1 renal, in the test on OVCAR-5 ovarian, with NCI/ADR-RES ovarian, in the test on CCRF-CEM leukemia, in the test with SK-MEL-2 melanoma and with HCT-116 colon was > 100 µM in each case. Moreover, the TGI in the test with UO-31 renal and in the test with DU-145 prostate was > 100 µM throughout.

In the case of `Cc1cc(C)c2c(=N)c3ccccc3n(CCCCCCn3c4ccccc4c(=N)c4c(C)cc(C)nc43)c2n1`, the TGI came out at 2.52 µM in the test on CAKI-1 renal; 2.64 µM in the test on SK-MEL-28 melanoma; 3.49 µM with OVCAR-5 ovarian; 0.565 µM in the test on CCRF-CEM leukemia; 2.54 µM in the test with RXF 393 renal; 2.97 µM in the test on SK-MEL-2 melanoma. Besides, the TGI in the test with HCT-116 colon was found to be 0.353 µM; in the test on UO-31 renal, 2.91 µM; in the test on DU-145 prostate, 3.13 µM.

Regarding `O=C1C2=C(CCCCC2)C2CCCCC12O` (stereo unspecified), the TGI in the test on SK-MEL-28 melanoma, with CCRF-CEM leukemia, in the test with RXF 393 renal, in the test with SK-MEL-2 melanoma, in the test with HCT-116 colon and in the test on UO-31 renal was > 100 µM in each case.

For the compound `C[C@H](CN1CC(=O)NC(=O)C1)N1CC(=O)NC(=O)C1`, the TGI in the test with CAKI-1 renal, with SK-MEL-28 melanoma, with OVCAR-5 ovarian, in the test with NCI/ADR-RES ovarian, in the test with CCRF-CEM leukemia and in the test with RXF 393 renal was > 100 µM each time. Moreover, the values for the total growth inhibition concentration (TGI) in the test on HCT-116 colon and with UO-31 renal were > 100 µM and > 44.1 µM, respectively.

Take `NC(=O)CCC(NC(=O)c1cccc2c(=O)c3ccccc3[nH]c12)C(=O)O` (stereo unspecified): the TGI in the test with SK-MEL-28 melanoma, with OVCAR-5 ovarian, in the test with NCI/ADR-RES ovarian, in the test on SK-MEL-2 melanoma, in the test on HCT-116 colon and in the test on UO-31 renal was > 100 µM throughout. Further, the TGI in the test with DU-145 prostate is > 100 µM.

For `C=C1C(=O)O[C@@H]2OC3(C)CCC4C(C)CCC1C42OO3` (stereo partly specified), the total growth inhibition concentration (TGI) in the test with CAKI-1 renal was 5.95 µM; in the test on SK-MEL-28 melanoma it was 25.1 µM and 23.9 µM; in the test on OVCAR-5 ovarian it was 39.7 µM and 29.3 µM; in the test with NCI/ADR-RES ovarian, 18.6 µM and 6.51 µM; in the test on CCRF-CEM leukemia, 2.35 µM and 5.26 µM; in the test on RXF 393 renal it was 9.65 µM. In addition, the concentration for total growth inhibition (TGI) is 15.4 µM and 5.51 µM with SK-MEL-2 melanoma; 10.2 µM and 3.52 µM in the test with HCT-116 colon; 17.5 µM and 22.1 µM in the test with UO-31 renal. Besides, the GI50 with OVCAR-5 ovarian was 24.5 µM; in the test with NCI/ADR-RES ovarian, 4.17 µM; in the test with RXF 393 renal, 3.31 µM; in the test on SK-MEL-2 melanoma, 3.79 µM; with HCT-116 colon it was 2.47 µM; in the test with UO-31 renal, 4.57 µM.

For `O=C1OC(c2ccc(Cl)cc2)(c2ccc(Cl)cc2)c2c1ccc1ccccc21`, the TGI in the test with CAKI-1 renal, in the test with SK-MEL-28 melanoma, in the test with OVCAR-5 ovarian, with CCRF-CEM leukemia, with RXF 393 renal and in the test with SK-MEL-2 melanoma was > 100 µM throughout. Also, the TGI in the test with UO-31 renal was > 100 µM.

As to `Cn1c(N=[N+]=[N-])cc(=O)n(C)c1=O`, the concentration for total growth inhibition (TGI) in the test with CAKI-1 renal, in the test on OVCAR-5 ovarian, in the test on NCI/ADR-RES ovarian, with CCRF-CEM leukemia, in the test with RXF 393 renal and in the test with SK-MEL-2 melanoma was > 100 µM throughout. In addition, the total growth inhibition concentration (TGI) with HCT-116 colon and in the test with UO-31 renal was > 100 µM in each case.

For `N/C(=N\N=C\c1cc2c(cc1Cl)OCO2)NO`, the TGI was > 100 µM in the test on CAKI-1 renal; > 100 µM in the test on SK-MEL-28 melanoma; > 61.5 µM in the test on OVCAR-5 ovarian; 57.2 µM in the test with NCI/ADR-RES ovarian; > 100 µM in the test with CCRF-CEM leukemia; > 100 µM in the test with RXF 393 renal. For the same compound, the TGI in the test on SK-MEL-2 melanoma was > 88.3 µM; in the test with HCT-116 colon, > 100 µM; with UO-31 renal it was 64.2 µM.

With `N#CCSc1c(-c2ccccc2)c(=O)n(-c2ccccc2)c(=S)n1-c1ccccc1`, the TGI with CAKI-1 renal, with SK-MEL-28 melanoma, in the test on OVCAR-5 ovarian, in the test on NCI/ADR-RES ovarian, with CCRF-CEM leukemia and in the test with SK-MEL-2 melanoma was > 100 µM in each case. Further, the TGI in the test on HCT-116 colon and in the test on UO-31 renal was > 100 µM each time.

For the compound `COc1cc(/C=C2\N=C(C)N(n3c(-c4ccccc4)nc4ccccc4c3=O)C2=O)cc(OC)c1OC`, the TGI with CAKI-1 renal, in the test on SK-MEL-28 melanoma, in the test with CCRF-CEM leukemia, in the test with HCT-116 colon, in the test on UO-31 renal and with DU-145 prostate was > 100 µM throughout.

Take `CCCCCCCC(=O)OCC(C[As](=O)(O)O)OC(=O)CCCCCCC` (stereo unspecified): the TGI was 29.3 µM in the test on SK-MEL-28 melanoma; 28 µM with CCRF-CEM leukemia; 18.2 µM in the test with RXF 393 renal; 30.3 µM in the test with HCT-116 colon; 28.2 µM in the test with UO-31 renal.

Turning to `Cc1c(O)c(=O)ccn1CCc1c[nH]c2ccccc12`, the concentration for total growth inhibition (TGI) is 7.25 µM with CAKI-1 renal; > 100 µM in the test with OVCAR-5 ovarian; 35.6 µM with NCI/ADR-RES ovarian; > 100 µM with HCT-116 colon; 35.4 µM with DU-145 prostate.

Take `C=CC[C@@H]1C=C[C@@H](C(=O)OC)n2c(=O)n(-c3ccccc3)c(=O)n21`: the TGI in the test with CAKI-1 renal, in the test on SK-MEL-28 melanoma, in the test on OVCAR-5 ovarian, in the test on NCI/ADR-RES ovarian, in the test on CCRF-CEM leukemia and in the test with HCT-116 colon was > 100 µM throughout. The total growth inhibition concentration (TGI) in the test with UO-31 renal and with DU-145 prostate was > 100 µM throughout.

With `COc1ccc(NCc2cnc3nc(N)nc(N)c3c2C)cc1`, the TGI with CAKI-1 renal, in the test with SK-MEL-28 melanoma, with OVCAR-5 ovarian, in the test with NCI/ADR-RES ovarian, with CCRF-CEM leukemia and in the test with RXF 393 renal was > 100 µM in each case. The TGI in the test with SK-MEL-2 melanoma and with UO-31 renal was > 100 µM throughout.

Turning to `Cc1ccc(S(=O)(=O)C2c3nc4ccccc4cc3-c3nc4ccccc4nc32)cc1` (stereo unspecified), the total growth inhibition concentration (TGI) in the test on CAKI-1 renal, with SK-MEL-28 melanoma, in the test with OVCAR-5 ovarian, in the test on CCRF-CEM leukemia, in the test with SK-MEL-2 melanoma and in the test on HCT-116 colon was > 100 µM throughout. In addition, the concentration for total growth inhibition (TGI) with UO-31 renal is > 100 µM.

Consider `CC(C)=CCCC1(Sc2ccccc2)C(=O)OCC1C=C(C)C` (stereo unspecified), for which the TGI in the test on CAKI-1 renal is > 100 µM; in the test on SK-MEL-28 melanoma, > 100 µM; with OVCAR-5 ovarian, 59 µM; in the test on NCI/ADR-RES ovarian it was > 100 µM; in the test on CCRF-CEM leukemia, > 100 µM; in the test with RXF 393 renal, 45.1 µM. Moreover, the TGI in the test on SK-MEL-2 melanoma is 55.8 µM; in the test with HCT-116 colon, 45.8 µM; with UO-31 renal, > 100 µM.
